Measured values reported in patent US10322143B2, “Inhibitors of ADAMTS4 or ADAMTS5 for use in preventing or treating cardiac remodeling and chronic heart failure” (Universitetet i Oslo, priority 2013, dated 2019).

Experiments:
versican = assay: Versican DPEEAE fragments and full-length versican in myocardial ECM fractions (immunoblotting), aortic banding rats; type: in vivo, rat
Method: Three days after AB, rats were stratified by the gradient over the stenosis to ensure similar degree of cardiac stress. Two and two stratified rats were randomized to either 6 mg/kg of the sulfated polysaccharide sodium pentosan polysulfate (PPS) (Interfarm AS, Norway) or vehicle (0.9% NaCl) injected subcutaneously every third day. […] Six weeks after AB or sham operation, the rats were examined by echocardiography and postmortem analysis, performed by experienced investigators (IS, JMA) blinded to treatment group.
Proteins from rat myocardium were extracted as previously described (Didangelos et al. J Biol Chem 2012. 287(23):19341-5). Briefly, proteins were separated into three fractions; NaCl-soluble extracellular proteins (NaCl-ECM) and guanidine-soluble extracellular proteins (G-ECM), containing the fluid and matrix compartment of ECM respectively, in addition to cellular and cell-linked proteins dissolvable in SDS (SDS-samples) (FIG. 6D). NaCl-ECM and G-ECM were deglycosylated to remove GAG chains using 4 mU/NaCl-sample and 12 mU/G-sample of Chondroitinase ABC (from Proteus vulgaris, G3667, Sigma-Aldrich, MO) and 5 mU/NaCl-sample and 15 mU/G-sample of keratanase (endo-β-galactosidase from Bacteroides fragilis, G6920, Sigma-Aldrich), as previously described (Didangelos A et al. supra).
Protein concentrations were measured using the Micro BCA Protein Assay Kit (Pierce/Thermo Scientific, IL). Sample buffer was mixed with 5-25 μg (G-samples) or 30 μg (NaCl and SDS samples) of the protein lysate, denatured at 96° C. for 10 min, and run on 1.5 mm 4-12% Bis-Tris gradient gels (Nupage, Invitrogen, CA), with MOPS SDS running buffer until the 37 kDa protein marker reached the bottom of the gel. All protein extracts were loaded blinded to group.
SDS-PAGE and immunoblotting was performed as described in the Criterion BioRad protocol, using polyvinylidene fluoride (PVDF) membranes (GE Healthcare Life Sciences, Uppsala, Sweden). Blots were developed using the ECL Plus Western Blotting Detection System (GE Healthcare) and visualized in the Las-4000 mini from Fujifilm (Japan). Before reprobing, stripping was performed using the Restore Western Blot Stripping Buffer (21059, Thermo Scientific, IL). […]
Membranes were blocked in 5% non-fat dry-milk (170-6404, BioRad) overnight. […] Primary antibodies used were against ADAMTS4 (PA1-1750, Thermo Pierce Scientific, IL), versican full length (sc-25831, Santa Cruz Biotechnology, CA) and versican fragments displaying the neo-epitope DPEEAE (ab19345, Abcam, Cambrigde, UK) resulting from ADAMTS cleavage by ADAMTS1/4 (Sandy J D et al. J Biol Chem 2001. 276(16):13372-8; Didangelos A et al. supra), and quantified by ImageJ.

TIMP-3 mRNA = TIMP-3 mRNA level (qRT-PCR) in MI rats; type: in vivo, rat; details: PPS-treatment
Method: At day 0 to 3 (median 2) after surgery, infarct size was quantified by echocardiography using the Vevo2100 system (Visualsonics Inc, Canada) and magnetic resonance imaging (MRi) using a 9.4 T/210 mm/ASR horizontal bore magnet (Agilent Technologies, Inc., USA). Initially, echocardiography was performed to select moderate to large infarcts ranging approximately 40 to 50%. Thereafter, infarct sizes were exactly measured by late-enhancement gadolinium MRi analyses (Bohl S., et al. American Journal of Physiology, 2009; 296 (4): H1200-H1208) and stratified into small infarcts (stratum 1: <43%, stratum 2: 43-48%), and large infarcts (stratum 3: 48-53%, stratum 4: >53%). The rats in each MI stratum and sham group were randomized to receive intervention or control treatment. The intervention group was treated with 6 mg/kg of sodium PPS (Interfarm AS, Norway), while the control group received vehicle (0.9% NaCl), both injected subcutaneously every third day starting from post-operative day 8-10.
The mRNA levels of the ADAMTS versicanases ADAMTS1, -4, -5, -8, and -20 (Shiomi T, et al. Pathology International 2010; 60(7):477-96), versican, aggrecan, syndecan-4, tissue inhibitor metalloprotease (TIMP)-3, and membrane-type (MT)4-MMP, were quantified in rat left ventricle by qRT-PCR, as previously described in Example 1.

ADAMTS4 = ADAMTS4 (Homo sapiens (Human), UniProt O75173); details: previous studies; cited from earlier work
ADAMTS4, sequence (O75173 213-837, species assumed): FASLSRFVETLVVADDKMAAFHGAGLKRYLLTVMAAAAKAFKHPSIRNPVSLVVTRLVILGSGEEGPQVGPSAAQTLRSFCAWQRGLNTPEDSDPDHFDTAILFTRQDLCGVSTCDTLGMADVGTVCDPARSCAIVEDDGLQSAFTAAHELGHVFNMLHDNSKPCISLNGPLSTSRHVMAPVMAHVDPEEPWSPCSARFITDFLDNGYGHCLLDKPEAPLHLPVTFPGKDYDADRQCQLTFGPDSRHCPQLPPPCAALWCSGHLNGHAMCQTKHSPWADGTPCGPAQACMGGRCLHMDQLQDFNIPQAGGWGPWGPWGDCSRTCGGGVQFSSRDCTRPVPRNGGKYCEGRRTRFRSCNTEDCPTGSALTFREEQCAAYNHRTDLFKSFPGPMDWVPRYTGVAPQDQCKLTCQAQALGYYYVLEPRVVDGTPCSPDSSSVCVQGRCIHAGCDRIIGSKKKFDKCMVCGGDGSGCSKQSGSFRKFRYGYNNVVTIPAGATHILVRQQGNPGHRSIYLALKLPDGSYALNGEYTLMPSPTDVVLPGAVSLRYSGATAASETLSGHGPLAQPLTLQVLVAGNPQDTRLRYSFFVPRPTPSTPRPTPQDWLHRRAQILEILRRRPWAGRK

[1] = PPS-treated AB-rats, normalized to control, median (interquartile range)

## pentosan polysulfate [PPS]
versican; PPS-treated AB-rats vs vehicle-treated AB-rats, p=0.05
  change of p150 versican in NaCl-ECM compared to vehicle-treated AB-rats: halved
versican; [1]
  level of full-length versican (p400) in G-ECM: 1.17 (0.77-6.85)
  level of p150 versican DPEEAE fragment in NaCl-ECM: 1.08 (0.69-1.63)
versican; PPS-treated sham, normalized to control, median (interquartile range)
  p70 versican fragment level in G-ECM: 0.34 (0.28-0.61)
TIMP-3 mRNA
  TIMP-3 level: did not change
ADAMTS4
  aggrecanase activity of ADAMTS4: inhibits
